Measured values from ChEMBL document CHEMBL1125174, “Conformationally restricted polysubstituted biphenyl derivatives with angiotensin II receptors antagonist properties” (J Med Chem, 1991).

Species on record: Oryctolagus cuniculus
Experiment: The compound was tested for antagonism of AII-induced contraction of rabbit aorta rings.
Type: functional
Details: read-out: pA2 (converted)

Compound	Kb [µM]
CCCCc1nc(Cl)c(CO)n1Cc1ccc(-c2ccccc2C(=O)O)cc1	0.0794
CCCCc1nc(CO)c(Cl)n1Cc1cc(OC)c(-c2ccccc2C(=O)O)c(OC)c1	3.16
